Results as given in ChEMBL document CHEMBL3228021, “Studies on analgesic agents. 1.1a Preparation of 1,2-diphenyl-2-(4-substituted 1-piperazinyl)ethanol derivatives and structure-activity relationships” (J Med Chem, 1979).

Tests used:
Mus musculus [1] = experiment: Analgesic activity in sc dosed ddN mouse assessed as inhibition of light radiation-induced thermal pain by D'Amour-Smith method; format: functional
Mus musculus [2] = experiment: Analgesic activity in po dosed ddN mouse assessed as inhibition of phenylquinone-induced writhing; format: functional
Mus musculus [3] = experiment: Toxicity in sc dosed ddN mouse light radiation-induced thermal pain model; format: organism-based; details: in vivo
Rattus norvegicus [4] = species: Rattus norvegicus; experiment: Toxicity in morphine-dependent rat assessed as induction of physical dependence liability by substitution test; format: organism-based; details: in vivo
Mus musculus [5] = species: Mus musculus; experiment: Toxicity in mouse assessed as induction of physical dependence liability by jumping test; format: organism-based; details: in vivo
Mus musculus [6] = experiment: Analgesic activity in po dosed ddN mouse assessed as inhibition of light radiation-induced thermal pain by D'Amour-Smith method; format: functional
Rattus norvegicus [7] = experiment: Analgesic activity in po dosed Wistar rat assessed as inhibition of tail pressing-induced mechanical pain by Haffner method; format: functional
Rhesus monkey = experiment: Toxicity in morphine-dependent monkey assessed as induction of physical dependence liability by single dose suppression test; format: organism-based, Macaca mulatta; details: in vivo
[8] = Acute lethal toxicity in po dosed mouse measured after 1 week; format: organism-based; details: in vivo
[9] = Acute lethal toxicity in po dosed rat measured after 1 week; format: organism-based; details: in vivo
[10] = Acute lethal toxicity in sc dosed mouse measured after 1 week; format: organism-based; details: in vivo
[11] = Acute lethal toxicity in sc dosed rat measured after 1 week; format: organism-based; details: in vivo
[12] = Toxicity in po dosed Wistar rat tail pressing-induced mechanical pain model; format: organism-based; details: in vivo
[13] = Mus musculus, ddN, sc, read-out: ED50

SMILES | ED50 (Mus musculus [1]; [13]) | ED50 (Mus musculus [2]) | also measured
COc1ccc(CN2CCN([C@H](c3ccccc3)[C@H](O)c3ccccc3)CC2)cc1 | 40.1 mg/kg | – | –
COc1ccc(CN2CCN([C@@H](c3ccccc3)[C@@H](O)c3ccccc3)CC2)cc1 | 13.5 mg/kg | – | –
COc1ccc(CN2CCN([C@H](c3ccccc3Cl)[C@H](O)c3ccccc3)CC2)cc1.Cl | 58.4 mg/kg | – | –
COc1ccc(CN2CCN([C@@H](c3ccccc3Cl)[C@@H](O)c3ccccc3)CC2)cc1.Cl | > 160 mg/kg | – | –
COc1ccc(CN2CCN(C(c3ccccc3)C(O)c3ccccc3)CC2)cc1 (racemic) | > 160 mg/kg | 31.1 mg/kg | ED50 (Mus musculus [3]): 15.2 mg/kg
Cc1ccc(CN2CCN(C(c3ccccc3)C(O)c3ccccc3)CC2)cc1.Cl.O (racemic) | > 160 mg/kg | 43.7 mg/kg | –
Cl.O=[N+]([O-])c1ccc(CN2CCN(C(c3ccccc3)C(O)c3ccccc3)CC2)cc1 (racemic) | > 160 mg/kg | 40 mg/kg | –
CCOc1ccc(CN2CCN(C(c3ccccc3Cl)C(O)c3ccccc3)CC2)cc1.Cl (racemic) | > 160 mg/kg | – | –
Cl.OC(c1ccccc1)C(c1ccccc1Cl)N1CCN(Cc2ccc(OCc3ccccc3)cc2)CC1 (racemic) | > 160 mg/kg | – | –
COc1ccccc1CN1CCN(C(c2ccccc2)C(O)c2ccccc2)CC1.Cl.O (racemic) | > 160 mg/kg | – | –
COc1ccccc1CN1CCN(C(c2ccccc2Cl)C(O)c2ccccc2)CC1.Cl.O (racemic) | > 160 mg/kg | – | –
COc1cccc(CN2CCN(C(c3ccccc3Cl)C(O)c3ccccc3)CC2)c1.Cl (racemic) | > 160 mg/kg | – | –
COc1cccc(CN2CCN(C(c3ccccc3C)C(O)c3ccccc3)CC2)c1.Cl.O (racemic) | > 160 mg/kg | – | –
COc1ccc(CN2CCN(C(c3ccccc3Cl)C(O)c3ccccc3)CC2)cc1OC.Cl (racemic) | > 160 mg/kg | – | –
Cl.OC(c1ccccc1)C(c1ccccc1Cl)N1CCN(Cc2ccc3c(c2)OCO3)CC1 (racemic) | > 160 mg/kg | – | –
COc1cc(CN2CCN(C(c3ccccc3Cl)C(O)c3ccccc3)CC2)cc(OC)c1OC.Cl.O (racemic) | > 160 mg/kg | – | –
COc1ccc(CN2CCN(C(c3ccccc3)C(O)c3ccccc3OC)CC2)cc1.Cl (racemic) | > 160 mg/kg | – | –
COc1ccc(CN2CCN(C(c3ccccc3)C(O)c3ccc(OC)cc3)CC2)cc1.Cl.O (racemic) | > 160 mg/kg | – | –
COc1ccc(CN2CCN(C(c3ccccc3)C(O)c3ccccc3Cl)CC2)cc1.Cl (racemic) | > 160 mg/kg | – | –
COc1ccc(CN2CCN(C(c3ccccc3)C(O)c3cccc(Cl)c3)CC2)cc1.Cl.O (racemic) | > 160 mg/kg | – | –
COc1ccc(CN2CCN(C(c3ccccc3)C(O)c3ccc(Cl)cc3)CC2)cc1.Cl (racemic) | > 160 mg/kg | – | –
COc1ccc(CN2CCN(C(c3ccccc3)C(O)c3ccccc3C)CC2)cc1.Cl (racemic) | 120 mg/kg | 100 mg/kg | –
COc1ccc(CN2CCN(C(c3ccccc3)C(O)c3cccc(C)c3)CC2)cc1.Cl (racemic) | 26.4 mg/kg | 18.5 mg/kg | –
COc1ccc(CN2CCN(C(c3ccccc3)C(O)c3ccc(C)cc3)CC2)cc1.Cl (racemic) | 31.7 mg/kg | 85.9 mg/kg | –
COc1ccc(CN2CCN(C(c3ccccc3)C(O)c3ccc(O)cc3)CC2)cc1.Cl (racemic) | > 160 mg/kg | – | –
COc1ccc(CN2CCN(C(c3ccccc3OC)C(O)c3ccccc3)CC2)cc1.Cl (racemic) | – | – | Activity (Rattus norvegicus [4]): Non-toxic; Activity (Mus musculus [5]): Non-toxic

SMILES | ED50 (Mus musculus [1]; [13]) | ED50 (Mus musculus [2]) | also measured
COc1ccc(CN2CCN(C(c3cccc(OC)c3)C(O)c3ccccc3)CC2)cc1.Cl (racemic) | > 160 mg/kg | – | –
COc1ccc(CN2CCN(C(c3ccc(OC)cc3)C(O)c3ccccc3)CC2)cc1.Cl (racemic) | 37.4 mg/kg | 24.1 mg/kg | –
COc1ccc(CN2CCN(C(c3cccc(Cl)c3)C(O)c3ccccc3)CC2)cc1.Cl (racemic) | 48.1 mg/kg | 27.2 mg/kg | –
COc1ccc(CN2CCN(C(c3ccc(Cl)cc3)C(O)c3ccccc3)CC2)cc1.Cl (racemic) | 39.7 mg/kg | 16.4 mg/kg | –
COc1ccc(CN2CCN(C(c3cccc(C)c3)C(O)c3ccccc3)CC2)cc1.Cl (racemic) | 28 mg/kg | 27.7 mg/kg | –
COc1ccc(CN2CCN(C(c3ccc(C)cc3)C(O)c3ccccc3)CC2)cc1.Cl (racemic) | 14.1 mg/kg | 16.8 mg/kg | –
COc1ccc(CN2CCN(C(c3ccc([N+](=O)[O-])cc3)C(O)c3ccccc3)CC2)cc1.Cl (racemic) | – | 10.2 mg/kg | ED50 (Mus musculus [1]): 8.11 mg/kg
COc1ccc(CN2CCN(C(c3ccccc3Cl)C(O)c3ccc(C)cc3)CC2)cc1.Cl (racemic) | > 160 mg/kg | – | –
COc1ccc(CN2CCN(C(c3ccc(Cl)cc3)C(O)c3ccc(C)cc3)CC2)cc1.Cl (racemic) | > 160 mg/kg | – | –
COc1ccc(CN2CCN(C(c3ccccc3OC)C(O)c3ccc(C)cc3)CC2)cc1.Cl (racemic) | > 160 mg/kg | – | –
COc1ccc(CN2CCN(C(c3ccccc3)C(OC(C)=O)c3ccccc3)CC2)cc1.Cl (racemic) | 80 mg/kg | 46.3 mg/kg | –
CCC(=O)OC(c1ccccc1)C(c1ccccc1)N1CCN(Cc2ccc(OC)cc2)CC1.Cl (racemic) | 73.1 mg/kg | 44.3 mg/kg | –
CCC(=O)OC(c1ccccc1)C(c1ccccc1Cl)N1CCN(Cc2ccc(OC)cc2)CC1.Cl (racemic) | > 160 mg/kg | 90 mg/kg | –
OC(c1ccccc1)C(c1ccccc1)N1CCN(c2ccccc2Cl)CC1 (racemic) | > 160 mg/kg | – | –
COc1ccccc1N1CCN(C(c2ccccc2)C(O)c2ccccc2)CC1 (racemic) | > 160 mg/kg | – | –
OC(c1ccccc1)C(c1ccccc1)N1CCN(c2ccccn2)CC1 (racemic) | > 160 mg/kg | – | –
Cl.OC(c1ccccc1)C(c1ccccc1)N1CCN(C2CCCCC2)CC1 (racemic) | – | – | ED50 (Mus musculus [3]): > 80 mg/kg
Cl.OC(c1ccccc1)C(c1ccccc1)N1CCN(Cc2ccccc2)CC1 (racemic) | > 160 mg/kg | 20.6 mg/kg | –
OC(c1ccccc1)C(c1ccccc1)N1CCN(CCc2ccccc2)CC1 (racemic) | > 160 mg/kg | – | –
COc1ccc(CN2CCN(C(c3ccccc3Cl)C(O)c3ccccc3)CC2)cc1.Cl (racemic; 38) | – | 20.9 mg/kg | ED50 (Mus musculus [6]): 165 mg/kg; Activity (Rattus norvegicus [4]): Non-toxic; ED50 (Rattus norvegicus [7]): 228 mg/kg; Activity (Mus musculus [5]): Non-toxic; Activity (Rhesus monkey): Non-toxic; ED50 (Mus musculus [1]): 79 mg/kg; LD50 at 168 h [8]: 509 mg/kg; LD50 at 168 h [9]: > 3200 mg/kg; LD50 at 168 h [10]: 431 mg/kg; LD50 at 168 h [11]: 584 mg/kg
COc1ccc(CN2CCN(C(c3ccccc3C)C(O)c3ccccc3)CC2)cc1.Cl (racemic; 41) | – | – | Activity (Rattus norvegicus [4]): Non-toxic; Activity (Mus musculus [5]): Non-toxic; ED50 (Mus musculus [1]): 65.2 mg/kg
COc1ccc(CN2CCN(C(c3ccccc3Cl)C(O)c3ccccc3)CC2)cc1.Cl (racemic; 53) | – | – | ED50 (Mus musculus [1]): >160 mg/kg
COc1ccc(CN2CCN(C(c3ccccc3C)C(O)c3ccccc3)CC2)cc1.Cl (racemic; 54) | – | – | ED50 (Mus musculus [1]): >160 mg/kg
COc1ccc(CN2CCN(C(c3ccc([N+](=O)[O-])cc3)C(O)c3ccccc3)CC2)cc1.Cl (stereo in doubt; 55) | – | – | ED50 (Mus musculus [1]): >160 mg/kg
Cc1c(N(C)C)c(=O)n(-c2ccccc2)n1C [AMINOPYRINE] | – | – | LD50 [12]: > 2560 mg/kg; LD50 at 168 h [8]: 523 mg/kg; ED50 (Mus musculus [3]): > 640 mg/kg; LD50 at 168 h [9]: > 2000 mg/kg; LD50 at 168 h [10]: 385 mg/kg; LD50 at 168 h [11]: 511 mg/kg
COc1ccc2c3c1O[C@H]1[C@@H](O)C=C[C@H]4[C@@H](C2)N(C)CC[C@@]341.COc1ccc2c3c1O[C@H]1[C@@H](O)C=C[C@H]4[C@@H](C2)N(C)CC[C@@]341.O.O=P(O)(O)O.O=P(O)(O)O [CODEINE PHOSPHATE] | 28.1 mg/kg | 8.21 mg/kg | ED50 (Mus musculus [6]): 98.4 mg/kg; ED50 (Rattus norvegicus [7]): 196 mg/kg; LD50 at 168 h [8]: 574 mg/kg; LD50 at 168 h [9]: 1180 mg/kg; LD50 at 168 h [10]: 271 mg/kg; LD50 at 168 h [11]: 365 mg/kg
